pIC50: −log10 of the molar value.
Tests used:
ovine COX-1 = target: T1, ovine COX-1 (Ovis aries, UniProt P05979); experiment: COX (ovine) Inhibitor Screening Assay, COX-1 (EIA of PGF2α); type: biochemical; conditions: Cayman COX inhibitor screening assay kit
T1 construct: purchased Cayman Chemical, USA 560131
T1 sequence (P05979 25-600): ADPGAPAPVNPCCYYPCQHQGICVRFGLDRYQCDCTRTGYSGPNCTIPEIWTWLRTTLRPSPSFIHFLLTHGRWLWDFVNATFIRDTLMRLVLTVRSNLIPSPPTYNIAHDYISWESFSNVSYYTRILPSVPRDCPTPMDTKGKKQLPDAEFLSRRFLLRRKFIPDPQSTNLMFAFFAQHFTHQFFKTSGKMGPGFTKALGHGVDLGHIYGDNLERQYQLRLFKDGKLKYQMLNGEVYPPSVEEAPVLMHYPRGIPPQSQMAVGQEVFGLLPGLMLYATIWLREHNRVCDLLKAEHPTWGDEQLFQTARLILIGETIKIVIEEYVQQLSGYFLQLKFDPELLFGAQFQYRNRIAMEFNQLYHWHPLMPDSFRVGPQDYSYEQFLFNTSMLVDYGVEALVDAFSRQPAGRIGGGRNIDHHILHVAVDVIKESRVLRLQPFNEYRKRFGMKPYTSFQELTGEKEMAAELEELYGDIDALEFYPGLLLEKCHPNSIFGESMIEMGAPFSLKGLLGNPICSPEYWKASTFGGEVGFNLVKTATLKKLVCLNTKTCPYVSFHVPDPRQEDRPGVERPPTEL
Description: (§1) 2-Butanone, ethylcyanoacetate (≥98%), dimethylformamide (≥99.5%), ethanol (≥99%), n-hexane, cyanamide and sulphur (≥99.5%) were bought from Acros Chemical (USA). Diethylamine, sodium sulphate anhydrous and analytical grade NaOH pellets were bought from Fisher Scientific (UK). 1,4-dioxane, concentrated HCl, ethyl acetate, hexane, chloroform, 4-fluorobenzoyl chloride (98%) , 4-methoxyphenyl acetonitrile (≥97%), 4-fluorophenyl acetonitrile (≥99%), and 2-(trifluoromethyl)benzoyl chloride were bought from Aldrich Chemicals. TLC Silica gel 60 F254 was obtained from Merck, USA. COX inhibitor screening assay kit (Item no. 560131) was procured from Cayman Chemical, USA.
(§2) The COX (ovine) Inhibitor Screening Assay was performed mainly to determine the selective inhibition of tested compounds (4a, 4b, 5a, 5b) towards the ovine COX-1 and human recombinant COX-2 isoenzymes. The addition of arachidonic acid (AA) helped to convert the COX component into PGG2, followed by reduction of PGG2 into PGH2. The following addition of SnCl2 converted PGH2 into PGF2α. The assay directly measures the PGF2α0 via enzyme immunoassay (EIA) using a broadly specific antiserum that bound to all PG tracers. Depending on the tested compounds inhibitory effect, the concentration of PGF2α in each well varied and was inversely proportional to the amount of PG tracers that was able to bind to the antiserum. PG tracers-antiserum complex was left to bind to the mouse monoclonal anti-rabbit antibody that has been coated to the well during the 18 hours incubation. Ellman's reagent was added to give distinct yellow coloration to the products from this enzymatic reaction, which absorbed strongly at 412 nm. The intensity of the color was proportional to the amount of PG tracers-antiserum complex bound to the well, which was inversely proportional to the concentration of PGF2α present.
(§3) The inhibitory activity of tested compounds was determined based on IC50 values whereas the selectivity was based on their selectivity indices (SI), which defined as COX-1 IC50/COX-2 IC50. In the assay system, indomethacin was used as non-selective COX inhibitor standard while NS-398 was used as COX-2 selective inhibitor standard.

human recombinant COX-2 = target: T2, human recombinant COX-2 (Homo sapiens, UniProt P35354); experiment: COX Inhibitor Screening Assay, COX-2 (EIA of PGF2α); type: biochemical; conditions: for pIC50: human recombinant COX-2, Cayman COX inhibitor screening assay kit; for SI (selectivity index, COX-1 IC50/COX-2 IC50): ratio COX-1 IC50/COX-2 IC50; for selective inhibition against COX-2: statement in words, COX-2 versus COX-1
T2 construct: purchased Cayman Chemical, USA 560131
T2 sequence (P35354 18-604): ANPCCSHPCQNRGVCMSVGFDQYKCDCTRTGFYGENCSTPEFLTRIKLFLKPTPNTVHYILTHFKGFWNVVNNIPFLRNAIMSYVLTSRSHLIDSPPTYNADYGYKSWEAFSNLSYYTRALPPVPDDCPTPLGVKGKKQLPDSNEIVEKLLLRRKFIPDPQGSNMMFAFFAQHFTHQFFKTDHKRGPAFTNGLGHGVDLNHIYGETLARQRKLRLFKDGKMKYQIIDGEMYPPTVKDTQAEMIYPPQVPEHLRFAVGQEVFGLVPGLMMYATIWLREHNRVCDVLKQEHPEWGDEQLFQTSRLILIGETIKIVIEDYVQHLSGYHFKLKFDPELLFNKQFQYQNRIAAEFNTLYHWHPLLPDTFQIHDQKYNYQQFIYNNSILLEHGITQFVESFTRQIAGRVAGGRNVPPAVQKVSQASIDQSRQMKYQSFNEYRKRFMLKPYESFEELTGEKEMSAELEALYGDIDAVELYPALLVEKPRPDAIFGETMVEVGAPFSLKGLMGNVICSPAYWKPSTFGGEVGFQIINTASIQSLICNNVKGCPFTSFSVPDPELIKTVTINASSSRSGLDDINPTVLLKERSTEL
Description: as §1, §2, §3

Structure (SMILES)	pIC50 (ovine COX-1)	pIC50 (human recombinant COX-2)	SI (selectivity index, COX-1 IC50/COX-2 IC50) (human recombinant COX-2)	selective inhibition against COX-2 (human recombinant COX-2)
COc1ccc(Cc2nc3sc(C)c(C)c3c(=O)[nH]2)cc1 [Compound 4b, 2-(4-Methoxybenzyl)-5,6-dimethylthieno[2,3-d]pyrimidin-4(3H)-one]	3.23	3.85	4.11	mild selective inhibition
Cc1sc2nc(Cc3ccc(F)cc3)[nH]c(=O)c2c1C [Compound 4a, 2-(4-Fluorobenzyl)-5,6-dimethylthieno[2,3-d]pyrimidin-4(3H)-one]	3.69	4.37	4.81	mild selective inhibition
Cc1sc2nc(NC(=O)c3ccc(F)cc3)[nH]c(=O)c2c1C [Compound 5a, N-(5,6-Dimethyl-4-oxo-3,4-dihydrothieno[2,3-d]pyrimidin-2-yl)-4-fluorobenzamide]	3.95	3.99	1.08	mild selective inhibition
Cc1sc2nc(NC(=O)c3ccccc3C(F)(F)F)[nH]c(=O)c2c1C [Compound 5b, N-(5,6-dimethyl-4-oxo-3,4-dihydrothieno[2,3-d]pyrimidin-2-yl)-2-(trifluoromethyl)benzamide]	4.66	3.72	0.12	mild selective inhibition
